Data taken from patent US6737383B1, “Herbicidal oxadiazolidines” (priority 1999, dated 2004).

Columns and labels:
[1] = tested on: soybean; assay: Test B pre/postemergence soybean; assay type: in vivo, Glycine max
Summary of the method: (§1)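 Herbicidal effect was estimated by eye on a ten-point control scale after plants spent twelve to sixteen days in a greenhouse following soil or foliar treatment. Foliar sprays targeted plants at one to four leaves; all doses were formulated in a non-phytotoxic solvent with surfactant.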

[2] = tested on: wild oat; assay: Test B pre/postemergence wild oat; assay type: in vivo, Avena fatua
Summary of the method: as §1

[3] = tested on: rice; assay: Test B flood test rice; assay type: in vivo, Oryza sativa
Summary of the method: (§2)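 Read-out is a visual response score from 0 (no effect) to 10 (complete control), assigned by comparison with untreated controls. Treatment was applied at the 2-leaf stage, and plants stayed in the greenhouse for twelve to sixteen days before scoring.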

[4] = tested on: wheat; assay: Test B pre/postemergence wheat; assay type: in vivo, Triticum aestivum
Summary of the method: as §1

[5] = tested on: smallflower flatsedge; assay: Test B flood test smallflower flatsedge; assay type: in vivo, Cyperus difformis
Summary of the method: as §2

[6] = tested on: velvetleaf; assay: Test B pre/postemergence velvetleaf; assay type: in vivo, Abutilon theophrasti
Summary of the method: as §1

[7] = tested on: morningglory; assay: Test B pre/postemergence morningglory; assay type: in vivo, Ipomoea hederacea
Summary of the method: as §1

[8] = tested on: surinam grass; assay: Test B pre/postemergence surinam grass; assay type: in vivo, Brachiaria decumbens
Summary of the method: as §1

[9] = tested on: rape; assay: Test B pre/postemergence rape; assay type: in vivo, Brassica napus
Summary of the method: as §1

[10] = tested on: pigweed; assay: Test B pre/postemergence pigweed; assay type: in vivo, Amaranthus retroflexus
Summary of the method: as §1

[11] = tested on: bedstraw; assay: Test B pre/postemergence bedstraw; assay type: in vivo, Galium aparine
Summary of the method: as §1

[12] = tested on: corn; assay: Test B pre/postemergence corn; assay type: in vivo, Zea mays
Summary of the method: as §1

[13] = tested on: cocklebur; assay: Test B pre/postemergence cocklebur; assay type: in vivo, Xanthium strumarium
Summary of the method: as §1

[14] = tested on: sugar beet; assay: Test B pre/postemergence sugar beet; assay type: in vivo, Beta vulgaris
Summary of the method: as §1

[15] = tested on: giant foxtail; assay: Test B pre/postemergence giant foxtail; assay type: in vivo, Setaria faberii
Summary of the method: as §1

[16] = tested on: blackgrass; assay: Test B pre/postemergence blackgrass; assay type: in vivo, Alopecurus myosuroides
Summary of the method: as §1

[17] = Postemergence, Rate 62 g/ha, scale 0 to 10, 0 is no effect, 10 is complete control
[18] = Postemergence, Rate 250 g/ha, scale 0 to 10, 0 no effect, 10 complete control
[19] = Preemergence, Rate 31 g/ha, visual rating, scale 0 to 10 (0 no effect, 10 complete control)
[20] = Preemergence, Rate 62 g/ha, scale 0 to 10, 0 is no effect, 10 is complete control
[21] = Preemergence, Rate 125 g/ha, scale 0 to 10 (0 no effect, 10 complete control)
[22] = Preemergence, Rate 250 g/ha, scale of 0 to 10 where 0 is no effect and 10 is complete control
[23] = Rate 125 g/ha, Postemergence, scale 0 to 10, 0 no effect, 10 complete control
[24] = Rate 125 g/ha, Postemergence section (flood test species), scale 0 to 10, 0 no effect, 10 complete control
[25] = flood test, listed under Postemergence, Rate 250 g/ha, scale 0 to 10, 0 no effect, 10 complete control
[26] = Rate 31 g/ha, Postemergence, scale 0 to 10

CCN(C(=O)n1oc(=O)n(-c2ccc(C)cc2C)c1=O)C1CCCCC1 [Compound 26]
4: Plant response rating, Giant foxtail [15, 22]
0: Soybean plant response rating [1, 19] | Plant response rating, Soybean [1, 20] | Plant response rating, Soybean [1, 21] | Plant response rating, Soybean [1, 22] | Wild oats plant response rating [2, 17] | Wild oats plant response rating [2, 18] | Wild oats plant response rating [2, 19] | Plant response rating, Wild oats [2, 21] | Plant response rating, Wild oats [2, 22] | Wild oats plant response rating [2, 23] | Rice plant response rating [3, 17] | Rice plant response rating [3, 24] | Rice plant response rating ([3]; Rate 500 g/ha, Postemergence section of Table B, 0 to 10 scale (0 no effect, 10 complete control)) | Rice plant response rating [3, 25] | Wheat plant response rating [4, 17] | Wheat plant response rating [4, 18] | Wheat plant response rating [4, 19] | Plant response rating, Wheat [4, 20] | Plant response rating, Wheat [4, 21] | Plant response rating, Wheat [4, 22] | Wheat plant response rating [4, 23] | S. Flatsedge plant response rating [5, 17] | S. Flatsedge plant response rating [5, 24] | S. Flatsedge plant response rating [5, 25] | Velvetleaf plant response rating [6, 17] | Velvetleaf plant response rating [6, 18] | Velvetleaf plant response rating [6, 19] | Plant response rating, Velvetleaf [6, 20] | Plant response rating, Velvetleaf [6, 21] | Plant response rating, Velvetleaf [6, 22] | Velvetleaf plant response rating [6, 23] | Morningglory plant response rating [7, 19] | Plant response rating, Morningglory [7, 20] | Plant response rating, Morningglory [7, 21] | Plant response rating, Morningglory [7, 22] | Morningglory plant response rating [7, 26] | B. signalgrass plant response rating [8, 17] | B. signalgrass plant response rating [8, 18] | B. signalgrass plant response rating [8, 19] | Plant response rating, B. signalgrass [8, 20] | Plant response rating, B. signalgrass [8, 21] | B. signalgrass plant response rating [8, 26] | B. signalgrass plant response rating [8, 23] | Rape plant response rating [9, 17] | Rape plant response rating [9, 18] | Rape plant response rating [9, 19] | Plant response rating, Rape [9, 20] | Plant response rating, Rape [9, 21] | Plant response rating, Rape [9, 22] | Rape plant response rating [9, 26] | Rape plant response rating [9, 23] | Redroot pigweed plant response rating [10, 17] | Redroot pigweed plant response rating [10, 18] | Redroot pigweed plant response rating [10, 19] | Plant response rating, Redroot pigweed [10, 20] | Plant response rating, Redroot pigweed [10, 21] | Plant response rating, Redroot pigweed [10, 22] | Redroot pigweed plant response rating [10, 26] | Redroot pigweed plant response rating [10, 23] | Bedstraw plant response rating [11, 17] | Bedstraw plant response rating [11, 18] | Bedstraw plant response rating [11, 19] | Plant response rating, Bedstraw [11, 20] | Plant response rating, Bedstraw [11, 21] | Plant response rating, Bedstraw [11, 22] | Bedstraw plant response rating [11, 26] | Bedstraw plant response rating [11, 23] | Corn plant response rating [12, 17] | Corn plant response rating [12, 18] | Corn plant response rating [12, 19] | Plant response rating, Corn [12, 20] | Plant response rating, Corn [12, 21] | Plant response rating, Corn [12, 22] | Corn plant response rating [12, 26] | Corn plant response rating [12, 23] | Cocklebur plant response rating [13, 17] | Cocklebur plant response rating [13, 18] | Cocklebur plant response rating [13, 19] | Plant response rating, Cocklebur [13, 20] | Plant response rating, Cocklebur [13, 21] | Plant response rating, Cocklebur [13, 22] | Cocklebur plant response rating [13, 26] | Cocklebur plant response rating [13, 23] | Sugarbeets plant response rating [14, 17] | Sugarbeets plant response rating [14, 18] | Sugarbeets plant response rating [14, 19] | Plant response rating, Sugarbeets [14, 20] | Plant response rating, Sugarbeets [14, 21] | Plant response rating, Sugarbeets [14, 22] | Sugarbeets plant response rating [14, 23] | Giant foxtail plant response rating [15, 17] | Giant foxtail plant response rating [15, 18] | Giant foxtail plant response rating [15, 19] | Plant response rating, Giant foxtail [15, 20] | Plant response rating, Giant foxtail [15, 21] | Giant foxtail plant response rating [15, 26] | Giant foxtail plant response rating [15, 23] | Blackgrass plant response rating [16, 17] | Blackgrass plant response rating [16, 18] | Blackgrass plant response rating [16, 19] | Plant response rating, Blackgrass [16, 20] | Plant response rating, Blackgrass [16, 21] | Plant response rating, Blackgrass [16, 22] | Blackgrass plant response rating [16, 26] | Blackgrass plant response rating [16, 23]
1: Soybean plant response rating [1, 17] | Soybean plant response rating [1, 23] | Morningglory plant response rating [7, 17] | Morningglory plant response rating [7, 23]
3: Morningglory plant response rating [7, 18]
2: Soybean plant response rating [1, 18] | Plant response rating, B. signalgrass [8, 22]
